In US20240182526A1, “COMPOSITIONS AND METHODS FOR MODULTING INFLAMMATORY AND DEGENERATIVE DISORDER” (University of Southern California, priority 2021, published 2024):
“Also recorded” adds a separate entry of the source.

Experiments:
pSRC = assay: Western blot of pSRC in pig articular chondrocytes; format: cell-based; settings: pig articular chondrocytes, OSM, 4 and 24 hours
Experimental: For standard western blot, treated and non-treated cells were lysed in RIPA Lysis and Extraction Buffer (Pierce, Rockford, IL) containing protease inhibitors (Pierce) followed by sonication with a 15-second pulse at a power output of 2 using the VirSonic 100 (SP Industries Company, Warminster, PA). Protein concentrations were determined by BCA protein assay (Pierce). Proteins were resolved with SDS-PAGE utilizing 4-15% Mini-PROTEAN TGX Precast Gels and transferred to Trans-Blot Turbo Transfer Packs with a 0.2-μm pore-size nitrocellulose membrane. The SDS-PAGE running buffer, 4-15% Mini-PROTEAN TGX Precast Gels, Trans-Blot Turbo Transfer Packs with a 0.2-μm pore-size nitrocellulose membrane was purchased from Biorad (Hercules, CA). Nitrocellulose membranes were blocked in 5% nonfat milk in 0.05% (v/v) Tween 20 (PBST) (Corning, Manassas, VA). Membranes were then incubated with primary antibodies p-gp130 Y814 (Evseenko lab, AbClonal), p-AKT (cat #4060, Cell Signaling), p-ERK 1/2 (cat #9106, Cell Signaling), p-Y416-SRC (cat #1246F, Novus Biologicals), p-gp130 (cat #1453R, Bioss USA) and p-NFκBp65 (cat #8242, Cell Signaling), and/or YAP1 (cat #4912, Cell Signaling). Histone H3 (cat #9515, Cell Signaling) was used as loading control. After washing in PBS containing 0.05% (v/v) Tween 20 (PBST), membranes were incubated with rabbit (cat #31460, Thermo Scientific) or mouse IgG-HRP (cat #31430, Thermo Scientific) secondary antibodies. After washing, membranes were developed with the Clarity Western ECL Blotting Substrate (Hercules, CA). Quantification of blots was performed using ImageJ 1.44 followed by Prism9 for analysis.
The studies delineate that gp130 Y814 regulates SRC downstream signaling; since SRC is known to associate with gp130, it was hypothesized that gp130 and SRC are capable of physically interacting on Y814 and hindering this interaction will prevent SRC from signaling. In order to impede this interaction, experiments were performed using an innovative peptide library screen with short and overlapping peptides mimicking the motif of gp130 around Y814 that were individually tested for pSRC downregulation; these peptides ranged from 4-15 amino acids. The peptides contained a protein sequence stretch of consecutive amino acids surrounding gp130 Y814 residue. To test their efficacy, pig articular chondrocytes were stimulated with or without OSM in presence or absence of the peptides followed by co-immunoprecipitation to determine interaction and western blot detecting pSRC activity. […] Due to sequence specificity, the peptide is capable of discriminating among other gp130 regions serving as a competitive inhibitor.

[1] = tested on: rat medial meniscal tear model; assay: Rat medial meniscal tear model of osteoarthritis; format: in vivo; settings: 6 weeks post-surgery
Experimental: Immunohistochemistry. Histological staining for was performed on wild type (WT) mice, F814 mice and all mice that underwent destabilization of the medial meniscus (DMM). Six weeks after surgery, mice were sacrificed and joints were fixed in 10% formalin, decalcified in 10% EDTA and embedded in paraffin. For rat model, 6 weeks after partial medial meniscectomy (PMM), rats were sacrificed and joints were fixed in 10% formalin, decalcified in 10% EDTA and embedded in paraffin. A total of three 8 μm thick sections were made at a 200 μm interval by coronal sectioning. For canine model, 4 and 16 weeks after medial meniscal release (MMR), dogs were sacrificed and joints were fixed in 10% formalin, decalcified in 10% EDTA and embedded in paraffin. No animals were excluded from analysis. A microtome (Leica) was used to cut 5-μm sections for joints. H&E staining was performed to assess morphology. Safranin O/Fast Green staining, immunohistochemistry for proteolytic enzymes and Osteoarthritis Research Society International (OARSI) scoring was performed as described (41, 42). For OARSI scoring, observers performing the analysis were blinded as whether the slides were from treated or control animals. The stained samples were visually observed using LSCM (Zeiss LSM710, Carl Zeiss, Germany).
Rat model of osteoarthritis. All experiments were conducted ethically. […]

Structure (SMILES): Cc1ccc(-c2csc(NC(=O)c3ccccn3)n2)cc1 [Peptide R805]
- protein levels of pSRC after OSM stimulation (pSRC): markedly suppressed; also recorded: prevents pro-inflammatory signaling in OSM-stimulated pig articular chondrocytes
- cartilage thickness and stiffness (indentation mapping) ([1]; femoral condyle): maintained thickness and reduced stiffness in rat cartilage
- cartilage degeneration (Safranin O histology) ([1]; weekly intra-articular injection): dramatically reduces the appearance of OA in rat and canine models; also recorded: prominent protective effects; also recorded: reduces cartilage degeneration
